Experimental data from patent US20080095713A1, “Method of Tumour Imaging” (priority 2004, published 2008).

Tests used:
[1] = Properties of the injected ^13C1-pyruvate composition at time of injection; type: physicochemical
Source text: The frequency calculated positioned the MR signal arising from ^13C1-alanine on resonance with ^13C1-lactate on the left and ^13C1-pyruvate resonating on the right of ^13C1-alanine. An unlocalised MR spectroscopy sequence was run to ensure that the 13C-MR coil and the system MR frequency had been set up correctly. The ^13C-image location was positioned to cover the tumour (slice thickness 10 mm, in plane pixel size 5×5 mm^2). In the reconstruction phase, the image data was zero-filled to result in 2.5×2.5×10 mm^3 resolution. ^13C1-pyruvate in TRIS buffer (90 mM) was injected in a dose of 10 ml/kg during a period of 12 s with a minimum volume of 2 ml into the tail vein and 30 s after the start of the injection (i.e. 18 s after finishing the injection), the chemical shift ^13C-MR sequence was started.
In total 30 different tumours were imaged in 18 rats. 1 rat failed and 3 tumours failed the biological criteria described in the preceding paragraph 5.5. […] The average polarisation of ^13C1-pyruvate at the time of injection was 21.2±2.9% (mean ±SD) and the pH was 8.08±0.14 (mean±SD).

[2] = test system: R3230AC rat mammary adenocarcinoma; assay: In vivo ^13C-MR tumour imaging using hyperpolarised ^13C-pyruvate
Procedure: R3230AC is a rat mammary adenocarcinoma that can be maintained in female Fischer 344 rats. To establish the animal tumour model, a frozen vial of R32030 cells containing RPMI 1640, 10% FBS and 10% DMSO was rapidly thawed in 37° C. Thereafter, the cell solution was transferred to FBS and increasing volumes of RPMI 1640 were added. Finally, the cell suspension was transferred to a 25 cm^2 growth flask and put into an incubator at 37° C., 5% CO2. Growth media were changed every other day. At the day of rat infection, removal of cells was carried out either by mechanical force or by means of trypsin. Cells were washed using phosphate buffer lacking calcium and magnesium. Trypsin (0.05% trypsin in 0.02% EDTA) was added for 2-5 min. Then, 5 ml FBS was added and the cells were transferred into a beaker containing RPMI 1640 with FCS and antibiotics (100 IU/ml penicillin, 100 IU/ml streptomycin and 2.5 μg/ml amphotericin B). The cell solution was centrifugated and the cell pellet was resuspended in 20 ml RPMI with FBS and antibiotics, centrifugation and resuspension was repeated. The cells were then aliquoted to vials containing 4×10^6 cells/ml RPMI 1640. To obtain donor tumours, female Fischer 344 rats (Charles River, 180-200 g) were anaesthetised and 0.3 ml of the cell suspension was subcutaneously injected in the inguinal region on both sides. 15 and 22 days later, pieces of tumour were prepared as described in F. A. Burgener et al., Invest Radiol 22/6 (1987), 472-478; S. Saini et al., J. Magn. Reson. 129/1 (1997), 35-43). Two incisions were made on the ventral abdomen of recipient female Fischer rats. A tumour piece was inserted into each pocket and the incisions were closed. Rats were brought to imaging 12-14 days after tumour engrafting.
Weighed rats were anaesthetised using isoflurane (2-3%) and kept on a heated table to ensure a body temperature of about 37° C. A catheter was introduced into the tail vein and into the arteria carotis communis sinistra. The rats were transported to the MR machine and placed on a home-built pad that was heated to approx. 37° C. by means of circulating FC-104 Fluorinert. This liquid will not give rise to background signals in ^1H- and ^13C-MR imaging. Anaesthesia was continued by means of 1-2% isoflurane delivered via a long tube to an open-breathing system at a rate of 0.4 L/min. […]
Based on the proton frequency found by the MR system the MR frequency for ^13C1-alanine was calculated according to the following equation: […]
The frequency calculated positioned the MR signal arising from ^13C1-alanine on resonance with ^13C1-lactate on the left and ^13C1-pyruvate resonating on the right of ^13C1-alanine. […]

[3] = T1 relaxation of ^13C-pyruvate in human full blood; type: physicochemical; settings: human full blood at 37° C.
Source text: The amount of alanine, bicarbonate and lactate is dependent on the metabolic status of the tissue under investigation.

[4] = DNP polarisation, dissolution and liquid-state ^13C-NMR assessment of polarisation; type: physicochemical; settings: 1.2 K, 3.35 T
Procedure: A 20 mM solution was prepared by dissolving 5.0 mg of the radical of Example 1 in ^13C1-pyruvic acid (164 μl). The sample was mixed to homogeneity and an aliquot of the solution (41 mg) was placed in a sample cup and inserted in the DNP polariser.
The sample was polarised under DNP conditions at 1.2 K in a 3.35 T magnetic field under irradiation with microwave (93.950 GHz). After 2 hours the polarisation was stopped and the sample was dissolved using a dissolution device according to WO-A-02/37132 in an aqueous solution of sodium hydroxide and tris(hydroxymethyl)-aminomethane (TRIS) to provide a neutral solution of hyperpolarized sodium^13C1-pyruvate. The dissolved sample was rapidly analysed with ^13C-NMR to assess the polarisation and a 19.0 % ^13C polarisation was obtained.
A 15 mM solution was prepared by dissolving the radical of Example 1 (209.1 mg) in a mixture of ^13C1-pyruvic acid (553 mg) and unlabelled pyruvic acid (10.505 g). […]
The sample was polarised under DNP conditions at 1.2 K in a 3.35 T magnetic field under irradiation with microwave (93.950 GHz). […] The filtered solution was rapidly analysed with ^13C-NMR to assess the polarisation, 16.5% ^13C polarisation was obtained. The residual radical concentration was subsequently analysed with a UV spectrophotometer at 469 nm and was determined to be below the detection limit of 0.1 μM.

[5] = DNP polarisation, solid-state ^13C-NMR (enhanced vs thermal equilibrium signal); type: physicochemical; settings: 20 mM Tris(8-carboxy-2,2,6,6-tetra(hydroxyethoxy)methyl-benzo[1,2-d:4,5-d′]bis(1,3)dithiole-4-yl)methyl sodium salt, 1.2 K, 3.35 T, 93.950 GHz
Procedure: A 20 mM solution was prepared by dissolving Tris(8-carboxy-2,2,6,6-tetra(hydroxyethoxy)methyl-benzo [1,2-d:4,5-d′]-bis-(1,3)-dithiole-4-yl)methyl sodium salt in ^13C1-pyruvic acid (83.1 mg). The sample was mixed to homogeneity, placed in a sample cup and inserted in the DNP polariser. The sample was polarised under DNP conditions at 1.2 K in a 3.35 T magnetic field under irradiation with microwave (93.950 GHz). The ^13C-NMR signal from the sample was acquired using a Varian Inova-200 NMR spectrometer. The DNP enhancement was calculated from a measurement of the thermal equilibrium ^13C-NMR signal and the enhanced NMR signal. 16% ^13C polarisation was obtained.

[6] = rat, i.v. tail vein 10 ml/kg, imaging 30 s after start of injection

## CC(=O)[13C](=O)O [^13C1-pyruvate]
[1]; mean ±SD, ^13C1-pyruvate in TRIS buffer (90 mM)
  average polarisation at the time of injection: 21.2±2.9%
[1]; mean±SD, injected composition
  pH: 8.08±0.14
[2]; discrimination of tumour and healthy tissue, 26 out of 26 tumours
  overall rate of success: 100%
[2]; [6]
  metabolic contrast in the tumour area, lactate signal: 24 out of 26
  metabolic contrast in the tumour area, lactate signal, alanine corrected: 26 out of 26
  metabolic contrast in the tumour area, lactate signal, pyruvate corrected: 26 out of 26

## CC(=O)[13C](=O)O [^13C-pyruvate]
[3]
  T1 relaxation: about 42 s

## CC(=O)[13C](=O)[O-].[Na+] [sodium ^13C1-pyruvate]
[4]; 15 mM radical of Example 1 in ^13C1-pyruvic acid/unlabelled pyruvic acid, 4 hours, dissolved NaOH/TRIS, 0.5 M pyruvate, radical removed on C18 column
  ^13C polarisation: 16.5%
[4]; 20 mM radical of Example 1 in ^13C1-pyruvic acid, 93.950 GHz, 2 hours, dissolved in NaOH/TRIS, liquid ^13C-NMR
  ^13C polarisation: 19.0%

## CC(=O)[13C](=O)O [^13C1-pyruvic acid]
[5]
  ^13C polarisation: 16%
